From US20260062426A1, “CYCLIN DEPENDENT KINASE DEGRADERS AND METHODS OF USE THEREOF” (Differentiated Therapeutics Inc, priority 2023, published 2026)

Assays:
Assay type in all cases: cell-based
CDK2 = molecular target: T1, CDK2 (Homo sapiens, UniProt P24941); experiment: CDK2 HIBIT PQ (protein quantification), degradation; details: for CDK2 HIBIT PQ Max (%): Max = Maximum; for DC50: PQ = Protein Quantification
T1 construct: host or cells: HEK293
In short: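 After overnight incubation at 37° C and 5% CO2 in 384-well plates (1.6×10^5 cells/well, 50 uL, DMEM with 10% FBS), HEK293 cells with HiBiT-tagged CDK2 were treated with compound for 6 hours. Detection used 20 μL of Nano-Glo HiBiT lytic reagent with LgBiT protein, 20 minutes of shaking at room temperature and an EnVision reading, with 0.1% DMSO as high control and medium alone as low control. These readings were the basis for DC50 and maximal degradation.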

CDK9 = molecular target: T2, CDK9 (Homo sapiens, UniProt P50750); experiment: CDK9 HIBIT PQ (protein quantification), degradation; details: for Dmax / CDK9 HIBIT PQ Max (%): Max = Maximum; for DC50: PQ = Protein Quantification
T2 construct: host or cells: HEK293
T2 sequence (P50750 whole entry): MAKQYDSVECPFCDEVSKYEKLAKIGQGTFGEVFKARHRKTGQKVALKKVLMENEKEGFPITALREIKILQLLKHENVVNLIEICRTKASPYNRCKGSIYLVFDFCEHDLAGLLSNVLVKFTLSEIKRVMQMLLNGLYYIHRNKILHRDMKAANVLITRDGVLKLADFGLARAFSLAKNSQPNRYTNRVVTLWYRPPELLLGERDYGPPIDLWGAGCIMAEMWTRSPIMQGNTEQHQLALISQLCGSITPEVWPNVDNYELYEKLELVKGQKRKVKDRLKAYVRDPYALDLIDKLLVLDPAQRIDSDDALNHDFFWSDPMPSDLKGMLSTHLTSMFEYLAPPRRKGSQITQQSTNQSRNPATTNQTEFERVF
In short: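 CDK9 protein was read by HiBiT assay in treated HEK293 cells carrying HiBiT-tagged CDK9, seeded at 1.6×10^5 cells/well in 50 uL in 384-well plates and incubated overnight at 37° C and 5% CO2. Controls were 0.1% DMSO-treated cells (high) and culture medium only (low). Maximal degradation, Dmax and DC50 were calculated from these readings.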

CCNE1 = molecular target: T3, CCNE1 (Homo sapiens, UniProt P24864+P24941); experiment: CCNE1 HIBIT PQ (protein quantification), degradation; details: for CCNE1 HIBIT PQ Max (%): Max = Maximum; for DC50: PQ = Protein Quantification
T3 construct: host or cells: HEK293
In short: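 For DC50 and maximal degradation, CCNE1 protein was quantified with a HiBiT assay in HEK293 cells carrying HiBiT-tagged CCNE1. Cells in EMEM with 10% FBS went into 384-well plates at 1.6×10⁵ cells/well in 50 uL, stayed overnight at 37° C and 5% CO₂, and then received compound for 6 hours. Readings were referenced to 0.1% DMSO-treated cells as the high control and culture medium only as the low control.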

SMILES	CDK2 HIBIT PQ Max (%) (CDK2)	DC50 (CDK2) [nM]	Dmax (CDK9) [%]	DC50 (CDK9) [nM]	CCNE1 HIBIT PQ Max (%) (CCNE1)	DC50 (CCNE1) [nM]	CDK9 HIBIT PQ Max (%) (CDK9)
CC(C)Oc1c(-c2cn[nH]c2)ncn2nc(Nc3ccc(S(=O)(=O)N4CCCC(CN5CCC(c6ccc7c(N8CCC(=O)NC8=O)nn(C)c7c6)CC5)C4)cc3F)nc12 (racemic) [Compound 87, rac-(R)-1-(6-(1-((1-((3-fluoro-4-((8-isopropoxy-7-(1H-pyrazol-4-yl)-[1,2, 4]triazolo[1,5-c]pyrimidin-2-yl)amino)phenyl)sulfonyl)piperidin-3-yl)methyl)piperidin-4-yl)-1-methyl-1H-indazol-3-yl)dihydropyrimidine-2,4(1H,3H)-dione]	90	0.4	72	3.32	79	1.4	
CC(C)Oc1c(-c2cn[nH]c2)ncn2nc(Nc3ccc(S(=O)(=O)N4CCC[C@H](CN5CC[C@H](c6ccc7c(N8CCC(=O)NC8=O)nn(C)c7c6)CC5(C)C)C4)cc3F)nc12 (relative stereo) [Compound 97, rel-1-(6-((R)-1-(((S)-1-((3-fluoro-4-((8-isopropoxy-7-(1H-pyrazol-4-yl)-[1,2,4]triazolo[1,5-c]pyrimidin-2-yl)amino)phenyl)sulfonyl)piperidin-3-yl)methyl)-2,2-dimethylpiperidin-4-yl)-1-methyl-1H-indazol-3-yl)dihydropyrimidine-2,4(1H,3H)-dione]	68	0.6	19		41		
CC(C)Oc1c(-c2cn[nH]c2)ncn2nc(Nc3ccc(S(=O)(=O)N4CCCC(CN5CCC(c6ccc7c(N8CCC(=O)NC8=O)nn(C)c7c6)CC5)C4)cc3F)nc12 (single isomer, unassigned) [Compound 94]	92	0.3	88	5.2	89	1.55	
CC(C)Oc1c(-c2cn[nH]c2)ncn2nc(Nc3ccc(S(=O)(=O)N4CCCC(CN5CCC(c6ccc7c(N8CCC(=O)NC8=O)nn(C)c7c6)CC5)C4)cc3F)nc12 (single isomer, unassigned) [Compound 95]	83	0.5		7.24	67	1.02	71
CC(C)Oc1c(-c2cn[nH]c2)ncn2nc(Nc3ccc(S(=O)(=O)N4CCC[C@H](CN5CC[C@@H](c6ccc7c(N8CCC(=O)NC8=O)nn(C)c7c6)CC5(C)C)C4)cc3F)nc12 (single isomer, unassigned) [Compound 96]	87	1	80	8.05	75	3.16	
CC(C)Oc1c(-c2cn[nH]c2)ncn2nc(Nc3ccc(S(=O)(=O)c4cccc(C(C)N5CCN(c6ccc7c(N8CCC(=O)NC8=O)nn(C)c7c6)CC5)c4)cc3F)nc12 (single isomer, unassigned) [Compound 98]	95	2.3	78	34.8	67	12.7	
CC(C)Oc1c(-c2cn[nH]c2)ncn2nc(Nc3ccc(S(=O)(=O)c4cccc(C(C)N5CCN(c6ccc7c(N8CCC(=O)NC8=O)nn(C)c7c6)CC5)c4)cc3F)nc12 (single isomer, unassigned) [Compound 99]	94	3		37.3	52	10.2	64
CC(C)Oc1c(-c2cn[nH]c2)ncn2nc(Nc3ccc(S(=O)(=O)c4cccc(C(C)N5CCC(c6ccc7c(N8CCC(=O)NC8=O)nn(C)c7c6)CC5)c4)cc3F)nc12 (single isomer, unassigned) [Compound 100]	90	2.9	86	12.4	80	14.3	
CC(C)Oc1c(-c2cn[nH]c2)ncn2nc(Nc3ccc(S(=O)(=O)c4cccc(C(C)N5CCC(c6ccc7c(N8CCC(=O)NC8=O)nn(C)c7c6)CC5)c4)cc3F)nc12 (single isomer, unassigned) [Compound 101]	90	2.6		10.6	77	13.9	82
CC(C)Oc1c(-c2cn[nH]c2)ncn2nc(Nc3ccc(S(=O)(=O)N4CCC[C@H](CN5CC[C@@H](c6ccc7c(N8CCC(=O)NC8=O)nn(C)c7c6)CC5(C)C)C4)cc3F)nc12 (single isomer, unassigned) [Compound 102]	90	0.5		5.65	76	1.34	75
CC(C)Oc1c(-c2cn[nH]c2)ncn2nc(Nc3ccc(S(=O)(=O)N4CCC[C@@H](CN5CC[C@H](c6ccc7c(N8CCC(=O)NC8=O)nn(C)c7c6)CC5(C)C)C4)cc3F)nc12 (single isomer, unassigned) [Compound 103]	90	1	92	4.01	83	1.96	
CC(C)Oc1c(-c2cn[nH]c2)ncn2nc(Nc3ccc(S(=O)(=O)N4CCC[C@H](CN5CC[C@H](c6ccc7c(N8CCC(=O)NC8=O)nn(C)c7c6)CC5(C)C)C4)cc3F)nc12 (single isomer, unassigned) [Compound 104]	75	1	13		48		
CC(C)Oc1c(-c2cn[nH]c2)ncn2nc(Nc3ccc(S(=O)(=O)N4CCC[C@@H](CN5CC[C@@H](c6ccc7c(N8CCC(=O)NC8=O)nn(C)c7c6)CC5(C)C)C4)cc3F)nc12 (single isomer, unassigned) [Compound 105]	63	0.9	25		24		
CC(C)Oc1c(-c2cn[nH]c2)ncn2nc(Nc3ccc(S(=O)(=O)c4cccc(C[C@H]5C[C@@H](c6ccc7c(c6)CN([C@@H]6CCC(=O)NC6=O)C7=O)C5)c4)cc3F)nc12 (stereo in doubt) [Compound 79, (R)-3-(5-((1r,3S)-3-(3-((3-fluoro-4-((8-isopropoxy-7-(1H-pyrazol-4-yl)-[1,2,4]triazolo[1,5-c]pyrimidin-2-yl)amino)phenyl)sulfonyl)benzyl)cyclobutyl)-1-oxoisoindolin-2-yl)piperidine-2,6-dione]	96	5.9	26		84	13.1	
CC(C)Oc1c(-c2cn[nH]c2)ncn2nc(Nc3ccc(S(=O)(=O)c4cccc(C[C@H]5C[C@H](c6ccc7c(c6)CN([C@@H]6CCC(=O)NC6=O)C7=O)C5)c4)cc3F)nc12 (stereo in doubt) [Compound 80, (R)-3-(5-((1s,3R)-3-(3-((3-fluoro-4-((8-isopropoxy-7-(1H-pyrazol-4-yl)-[1,2,4]triazolo[1,5-c]pyrimidin-2-yl)amino)phenyl)sulfonyl)benzyl)cyclobutyl)-1-oxoisoindolin-2-yl)piperidine-2,6-dione]	98	3.9	49		85	20.3	
CC(C)Oc1c(-c2cn[nH]c2)ncn2nc(Nc3ccc(S(=O)(=O)c4cccc(C[C@H]5C[C@@H](c6ccc7c(c6)CN([C@H]6CCC(=O)NC6=O)C7=O)C5)c4)cc3F)nc12 (stereo in doubt) [Compound 81, (S)-3-(5-((1r,3R)-3-(3-((3-fluoro-4-((8-isopropoxy-7-(1H-pyrazol-4-yl)-[1,2,4]triazolo[1,5-c]pyrimidin-2-yl)amino)phenyl)sulfonyl)benzyl)cyclobutyl)-1-oxoisoindolin-2-yl)piperidine-2,6-dione]	86	24.2	1		57	62.8	
CC(C)Oc1c(-c2cn[nH]c2)ncn2nc(Nc3ccc(S(=O)(=O)c4cccc(C[C@H]5C[C@H](c6ccc7c(c6)CN([C@H]6CCC(=O)NC6=O)C7=O)C5)c4)cc3F)nc12 (stereo in doubt) [Compound 82, (S)-3-(5-((1s,3S)-3-(3-((3-fluoro-4-((8-isopropoxy-7-(1H-pyrazol-4-yl)-[1,2,4]triazolo[1,5-c]pyrimidin-2-yl)amino)phenyl)sulfonyl)benzyl)cyclobutyl)-1-oxoisoindolin-2-yl)piperidine-2,6-dione]	88	23.4	27		52	100	
CC(C)Oc1c(-c2cn[nH]c2)ncn2nc(NC3CCN(S(=O)(=O)c4cccc(CN5CCC(c6ccc7c(N8CCC(=O)NC8=O)nn(C)c7c6)CC5)c4)CC3)nc12 [Compound 1, 1-(6-(1-(3-((4-((8-isopropoxy-7-(1H-pyrazol-4-yl)-[1,2,4]triazolo[1,5-c]pyrimidin-2-yl)amino)piperidin-1-yl)sulfonyl)benzyl)piperidin-4-yl)-1-methyl-1H-indazol-3-yl)dihydropyrimidine-2,4(1H,3H)-dione]	93	1.62	104	2.98	92	1.94	
